Laboratory results reported in ChEMBL document CHEMBL5120838, “Synthesis and biological evaluation of geniposide derivatives as inhibitors of hyperuricemia, inflammatory and fibrosis” (Eur J Med Chem, 2022).
The source made the active and inactive calls. The rule behind the calls is not given here.

Columns and labels:
[1] = test system: HK-2; assay: Antiinflammatory activity in hyperuricemic human HK-2 cells assessed as reduction in TNF-alpha level at 200 uM; assay type: functional, cell-based
[2] = test system: HK-2; assay: Antiinflammatory activity in hyperuricemic human HK-2 cells assessed as reduction in IL-1beta level at 200 uM; assay type: functional, cell-based
[3] = test system: Mus musculus; assay: Anti-hyperuricemic activity against adenine and potassium oxonate-induced hyperuricemia Kunming mouse model assessed as blood urea nitrogen level at 200 mg/kg, po administered via gavage once daily for 2 weeks (reference value: 9.88 +/- 1.21 mM); assay type: functional
[4] = test system: Mus musculus; assay: Anti-hyperuricemic activity against adenine and potassium oxonate-induced hyperuricemia Kunming mouse model assessed as reduction in serum uric acid level at 200 mg/kg, po administered via gavage once daily for 2 weeks (reference value: 318.16 +/- 3.31 uM); assay type: functional
[5] = test system: HK-2; assay: Antiinflammatory activity in hyperuricemic human HK-2 cells assessed as reduction in TGF-beta level at 200 uM; assay type: functional, cell-based
[6] = test system: Mus musculus; assay: Anti-hyperuricemic activity against adenine and potassium oxonate-induced hyperuricemia Kunming mouse model assessed as reduction in serum creatinine level at 200 mg/kg, po administered via gavage once daily for 2 weeks (reference value: 87.62 +/- 0.67 uM); assay type: functional
[7] = molecular target: Xanthine dehydrogenase/oxidase (Bos taurus, UniProt P80457); assay: Inhibition of bovine XOD assessed as inhibition of uric acid formation using xanthine as substrate preincubated with enzyme for 5 mins followed by substrate addition and measured for 30 mins by microplate reader analysis
Xanthine dehydrogenase/oxidase, sequence (P80457 whole entry): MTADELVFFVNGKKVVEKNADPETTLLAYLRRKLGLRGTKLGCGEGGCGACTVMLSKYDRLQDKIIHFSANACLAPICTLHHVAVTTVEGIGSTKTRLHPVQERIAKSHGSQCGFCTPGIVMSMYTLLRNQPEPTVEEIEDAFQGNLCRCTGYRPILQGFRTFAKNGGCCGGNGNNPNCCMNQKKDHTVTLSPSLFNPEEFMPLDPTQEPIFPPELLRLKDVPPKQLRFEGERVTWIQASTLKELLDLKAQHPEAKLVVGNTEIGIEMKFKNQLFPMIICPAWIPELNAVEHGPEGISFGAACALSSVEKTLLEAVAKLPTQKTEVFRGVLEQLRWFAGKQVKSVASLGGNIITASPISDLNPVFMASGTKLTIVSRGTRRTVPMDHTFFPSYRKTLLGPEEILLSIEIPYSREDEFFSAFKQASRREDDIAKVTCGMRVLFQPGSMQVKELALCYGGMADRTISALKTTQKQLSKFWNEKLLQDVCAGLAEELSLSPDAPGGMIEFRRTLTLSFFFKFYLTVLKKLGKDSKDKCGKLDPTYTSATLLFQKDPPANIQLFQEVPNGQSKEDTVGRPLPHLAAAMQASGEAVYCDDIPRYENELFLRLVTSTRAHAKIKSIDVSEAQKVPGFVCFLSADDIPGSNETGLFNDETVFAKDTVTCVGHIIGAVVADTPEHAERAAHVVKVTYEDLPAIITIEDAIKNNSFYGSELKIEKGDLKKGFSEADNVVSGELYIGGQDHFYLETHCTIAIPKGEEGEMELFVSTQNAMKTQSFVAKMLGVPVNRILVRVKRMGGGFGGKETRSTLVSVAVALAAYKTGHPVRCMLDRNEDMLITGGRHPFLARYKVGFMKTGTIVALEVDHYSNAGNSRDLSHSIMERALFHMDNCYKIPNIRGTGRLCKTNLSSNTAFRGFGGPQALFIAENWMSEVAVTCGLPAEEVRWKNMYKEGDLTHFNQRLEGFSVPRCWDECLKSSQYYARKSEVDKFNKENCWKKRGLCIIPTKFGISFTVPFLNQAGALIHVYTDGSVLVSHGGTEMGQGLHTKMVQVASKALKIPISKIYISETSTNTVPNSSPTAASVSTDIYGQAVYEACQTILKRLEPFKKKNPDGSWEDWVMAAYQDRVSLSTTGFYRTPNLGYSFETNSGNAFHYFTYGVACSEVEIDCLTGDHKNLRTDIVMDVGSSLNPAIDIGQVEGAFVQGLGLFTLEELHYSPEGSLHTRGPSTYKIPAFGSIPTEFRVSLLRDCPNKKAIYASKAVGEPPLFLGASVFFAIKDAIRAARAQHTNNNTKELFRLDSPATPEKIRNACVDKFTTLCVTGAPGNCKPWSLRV

## COC(=O)C1=CO[C@@H](O[C@@H]2O[C@H](CO)[C@@H](O)[C@H](O)[C@H]2O)[C@@H]2C(CO)=CC[C@H]12 [GENIPOSIDE]
[1]
  Activity: Active
[2]
  Activity: Active
[3]
  Activity: 7 mM
[4]
  Activity: 236.72 µM
[5]
  Activity: Active
[6]
  Activity: 75.09 µM
[7]
  IC50: 161 µM
